Results taken from US20240228497A1, “Pyrrolo[2, 3-b]Pyrazine-Based Bifunctional Compounds as HPK1 Degraders and the Use Thereof” (BeiGene, Ltd., priority 2021, published 2024).

What was measured:
[1] = test system: pSLP76 (S376) level in Jurkat cell line; assay: Cellular pSLP76(S376) HTRF Assay in Jurkat cells; assay type: cell-based; conditions: 2 h compound treatment, stimulated with 0.05 μg/mL anti-human CD3 (OKT3) for 30 min
Protocol: Cellular pSLP76(S376) HTRF Assay
Jurkat cell line was used in this study. Cells were maintained in RPMI 1640 supplemented with heat-inactivated 10% fetal bovine serum (Thermo Fisher), 50 units/mL penicillin and streptomycin (Thermo Fisher) and kept at 37° C. in a humidified atmosphere of 5% CO2 in air. Cells were reinstated from frozen stocks that were laid down within 30 passages from the original cells purchased. After cell starvation in the assay buffer (RPMI 1640 supplemented with heat-inactivated 0.1% fetal bovine serum) for 18 hours, cells were seeded into a round bottom 96-well plate at 150,000 cells per well density. Cells were treated with a 9-point dilution series of test compounds. The final compound concentration is from 0 to 2 μM. After 2 h compound treatment, cells were stimulated with 0.05 μg/mL anti-human CD3 (OKT3, Bioxcell) for 30 min at 37° C. Then the cells were lysed, and the pSLP76 (S376) level in the cell lysates was detected by HTRF kit (Cisbio). A total of 16 μL of cell lysate from each well of a 96-well plate was transferred to a 384-well small volume white assay plate. Lysate from each well was incubated with 2 μL of Eu^3+-cryptate (donor) labeled anti-phospho-SLP76 and 2 μL of D2 (acceptor) labeled anti-phospho-SLP76 antibodies (Cisbio) overnight in dark at room temperature. FRET signals (655 nm) were measured using a PHERAstar FSX reader (BMG Labtech). IC50 determination was performed by fitting the curve of percent inhibition versus the log of the inhibitor concentration using Dotmatics.

HPK1 protein [2] = target: T1, HPK1 protein (Homo sapiens, UniProt Q92918); assay: HPK1 Protein Degradation Assay in Human PBMC (Western Blot); assay type: cell-based; conditions: 24 h compound incubation
T1 construct: host or cells: human PBMC (CD4+ and CD8+ T cells gated in the FACS assay)
T1 sequence (Q92918 whole entry): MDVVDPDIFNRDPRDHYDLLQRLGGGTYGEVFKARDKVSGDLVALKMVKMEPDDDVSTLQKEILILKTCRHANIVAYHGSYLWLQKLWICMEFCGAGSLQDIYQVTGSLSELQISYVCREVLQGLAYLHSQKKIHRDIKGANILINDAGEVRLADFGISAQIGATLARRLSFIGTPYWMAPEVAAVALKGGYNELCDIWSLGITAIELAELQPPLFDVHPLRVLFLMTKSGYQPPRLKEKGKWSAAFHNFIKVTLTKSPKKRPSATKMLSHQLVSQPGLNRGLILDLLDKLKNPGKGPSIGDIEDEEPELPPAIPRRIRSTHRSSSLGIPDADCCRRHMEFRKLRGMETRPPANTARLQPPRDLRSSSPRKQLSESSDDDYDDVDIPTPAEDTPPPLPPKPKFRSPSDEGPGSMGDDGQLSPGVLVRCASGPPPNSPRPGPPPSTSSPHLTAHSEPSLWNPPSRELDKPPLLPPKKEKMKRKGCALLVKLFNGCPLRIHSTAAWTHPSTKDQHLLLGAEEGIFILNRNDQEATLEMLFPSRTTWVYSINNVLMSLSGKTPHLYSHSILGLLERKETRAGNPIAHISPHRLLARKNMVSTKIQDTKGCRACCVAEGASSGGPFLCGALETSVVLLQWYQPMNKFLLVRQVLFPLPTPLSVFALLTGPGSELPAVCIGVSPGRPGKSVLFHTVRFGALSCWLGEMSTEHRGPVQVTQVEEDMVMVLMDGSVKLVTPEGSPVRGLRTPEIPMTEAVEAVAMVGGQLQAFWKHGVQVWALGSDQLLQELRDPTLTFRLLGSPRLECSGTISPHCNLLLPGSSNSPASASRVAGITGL
Protocol: HPK1 Protein Degradation Assay in Human PBMC (Western Blot)
Human PBMCs (AllCells) was used in this study. Cells were thawed one day in advance and maintained in RPMI-1640 supplemented 10% fetal bovine serum (Thermo Fisher), 50 units/mL penicillin and streptomycin (Thermo Fisher) and the mixture was kept at 37° C. in a humidified atmosphere air containing 5% CO2. 3×10^6 PBMCs per well in 1 mL culture medium were seeded in the 12-well plate, and the cells were treated with an appropriate dilution series of compounds with a final concentration up to […]. After 24 h of compound incubation, the medium was aspirated, the cells were washed with PBS, and then 30 μL of 1X protein lysis buffer (Cell Signaling Technology) containing protease inhibitors (Merck) and phosphatase inhibitors (Sigma) was added. The cells were lysed. After centrifugation, the supernatants were quantified by BCA protein assay kit (Thermo Fisher). 4X loading Buffer (Thermo Fisher) was added to equal amounts of total protein from each sample and heated at 95° C. for 5 minutes. 30-50 μg of cell lysate was loaded onto a 4%-12% NuPAGE Bis-Tris Gel (Thermo Fisher) and electro-transferred to NC membranes (Thermo Fisher). The membranes were blocked for least 1 hour with blocking reagent (LI-COR), and then incubated overnight with anti-HPK1 (Cell Signaling Technology, 4472S) antibodies and as loading control anti-ß-actin (Cell Signaling Technology, 3700S) or anti-GAPDH (Cell Signaling Technology, 97166S) at 4° C. with gentle shaking. The membranes were washed three times with TBST, and incubated at least 1 hour at room temperature with anti-mouse or anti-rabbit secondary fluorescent antibody (Thermo Fisher, A32729; LI—COR, 926-32213). Then the membranes were washed three times in TBST, and one time in water. Immunoreactive bands were visualized by Odyssey CLx and analyzed by GraphPad Prism 8.

[3] = target: T2, HPK1 kinase (aa1-346, Life Technologies) (Homo sapiens, UniProt Q92918); assay: HPK Kinase Activity Assay at 1 mM ATP (TR-FRET); assay type: biochemical; conditions: HPK1 kinase 40 nM, 0.5 μM STK1 substrate, 60 min preincubation, read-out: Enzymatic activity IC50
T2 construct: HPK1 kinase (aa1-346, Life Technologies); purchased Life Technologies
T2 sequence (Q92918 1-346): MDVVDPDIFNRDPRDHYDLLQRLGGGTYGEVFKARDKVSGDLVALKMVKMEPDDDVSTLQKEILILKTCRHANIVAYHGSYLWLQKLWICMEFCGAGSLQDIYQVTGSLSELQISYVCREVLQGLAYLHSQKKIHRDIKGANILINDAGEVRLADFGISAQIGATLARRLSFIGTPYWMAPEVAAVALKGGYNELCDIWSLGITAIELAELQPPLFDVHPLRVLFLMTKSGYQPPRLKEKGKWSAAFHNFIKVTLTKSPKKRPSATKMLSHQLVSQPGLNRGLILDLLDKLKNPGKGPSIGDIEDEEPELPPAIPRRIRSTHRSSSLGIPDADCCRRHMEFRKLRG
Protocol: HPK Kinase Activity Assay at 1 mM ATP
Compounds disclosed herein were tested for inhibition of HPK1 kinase (aa1-346, Life Technologies) activity in assays based on the time-resolved fluorescence-resonance energy transfer (TR-FRET) methodology. The assays were carried out in 384-well low volume black plates in a reaction mixture containing HPK1 kinase (40 nM), 1 mM ATP, 0.5 μM STK1 substrate and 0-10 μM compound in buffer containing 50 mM HEPES, 0.01% BSA, 0.1 mM Orthovanadate, 10 mM MgCl2, 1 mM DTT, pH=7.0, 0.005% Tween-20. The kinase was incubated with the compounds disclosed herein or DMSO for 60 minutes at room temperature and the reaction was initiated by the addition of ATP and STK1 substrate. After reaction at room temperature for 120 minutes, an equal volume of stop/detection solution was added according to the manufacture's instruction (CisBio). The stop/detection solution contained STK Antibody—Cryptate and XL665-conjugated streptavidin in Detection Buffer. The TR-FRET signals (ratio of fluorescence emission at 665 nm over emission at 620 nm with excitation at 337 nm wavelength) were recorded on a PHERAstar FS plate reader (BMG Labtech). Phosphorylation of STK1 substrate led to the binding of STK Antibody—Cryptate to the biotinylated STK1 substrate, which places fluorescent donor (Eu^3+ crypate) in close proximity to the accepter (Streptavidin-XL665), thus resulting in a high degree of fluorescence resonance energy transfer. The inhibition of HPK1 in presence of increasing concentrations of compounds was calculated based on the ratio of fluorescence at 665 nm to that at 620 nm. IC50 determination was performed by fitting the curve of percent inhibition versus the log of the inhibitor concentration using Dotmatics.

HPK1 protein [4] = target: T1, HPK1 protein; assay: HPK1 Protein Degradation Assay in Human PBMC (FACS); assay type: cell-based; conditions: 24 h compound treatment
Protocol: HPK1 Protein Degradation Assay in Human PBMC (FACS)
Human PBMCs (AllCells) was used in this study. Cells were thawed one day in advance and maintained in RPMI-1640 supplemented 10% fetal bovine serum (Thermo Fisher), 50 units/mL penicillin and streptomycin (Thermo Fisher) and the mixture was kept at 37° C. in a humidified atmosphere air containing 5% CO2. 3×10^6 PBMCs per well in 95 μL culture medium were seed in the 96-well plate, and the cells were treated with an appropriate dilution series of compounds. After 24 h compound treatment, 100 μL 1xLyse/Fix buffer (BD, diluted with water, warm up in 37° C.) was added to cells and the cells were incubated at 37° C. for 10 minutes. After fixed, the cells were transferred to V-bottom plates (Corning), and washed with FACS buffer (cold 2% FBS DPBS). The cells were permeabilized by adding 100 μL pre-chilled BD Phosflow Perm Buffer III (BD) for 30 min on ice. After washed with FACS buffer twice, the cells were incubated with 50 μL antibody cocktail (HPK1(CST)(1:50), anti-human CD4 BV421 (BD)(1:25), anti-human CD8 APC(BD) (1:25)) at room temperature for 1 h. After washed with FACS buffer twice, the cells were further incubated with 50 μL secondary antibody cocktail (Biolegend) (1:50) at room temperature for 1 h. After washed with FACS buffer twice, the signals were detected by BD FACS Celesta. The data were analyzed by Excel and GraphPad Prism 8.

[5] = CD4+ T Cells, read-out: Protein degradation DC50, CD4+ T Cells
[6] = CD4+ T Cells, read-out: Protein degradation Dmax, CD4+ T Cells
[7] = CD8+ T Cells, read-out: Protein degradation DC50, CD8+ T Cells
[8] = CD8+ T Cells, read-out: Protein degradation Dmax, CD8+ T Cells

| SMILES | IC50 [1] [µM] | DC50 (HPK1 protein [2]) [µM] | Dmax (HPK1 protein [2]) [%] | Protein degradation DC90 (HPK1 protein [2]) [µM] | IC50 [3] [µM] | Protein degradation DC90, CD4+ T Cells (HPK1 protein [4]; CD4+ T Cells) [µM] | DC50 (HPK1 protein [4]; [5]) [µM] | Dmax (HPK1 protein [4]; [6]) [%] | Protein degradation DC90, CD8+ T Cells (HPK1 protein [4]; CD8+ T Cells) [µM] | DC50 (HPK1 protein [4]; [7]) [µM] | Dmax (HPK1 protein [4]; [8]) [%] |
| --- | --- | --- | --- | --- | --- | --- | --- | --- | --- | --- | --- |
| Cc1cc(-c2c[nH]c3ncc(-c4cc(C)c5c(c4)CCN(CCNC(=O)C4CCN(c6ccc7c(c6)C(=O)N(C6CCC(=O)NC6=O)C7=O)CC4)C5)nc23)ccc1C(=O)N(C)C (stereo not drawn) [Example 1, N-(2-(6-(7-(4-(dimethylcarbamoyl)-3-methylphenyl)-5H-pyrrolo[2,3-b]pyrazin-2-yl)-8-methyl-3,4-dihydroisoquinolin-2(1H)-yl)ethyl)-1-(2-(2,6-dioxopiperidin-3-yl)-1,3-dioxoisoindolin-5-yl)piperidine-4-carboxamide] | 0.879 | 0.183 | 47 | 3.805 | 0.121 | – | – | – | – | – | – |
| Cc1cc(-c2cnc3[nH]cc(-c4ccc(C(=O)N(C)C)cc4)c3n2)cc2c1CN(CCC(=O)N1CCN(c3ccc(N4CCC(=O)NC4=O)cc3)CC1)CC2 [Example 5, 4-(2-(2-(3-(4-(4-(2,4-dioxotetrahydropyrimidin-1(2H)-yl)phenyl)piperazin-1-yl)-3-oxopropyl)-8-methyl-1,2,3,4-tetrahydroisoquinolin-6-yl)-5H-pyrrolo[2,3-b]pyrazin-7-yl)-N,N-dimethylbenzamide] | 0.116 | – | – | – | 0.024 | 0.06 | 0.009 | 95 | 0.128 | 0.017 | 96 |
| Cc1cc(-c2cnc3[nH]cc(-c4ccc(C(=O)N(C)C)cc4)c3c2)cc2c1CN(CCC(=O)N1CCN(c3ccc(N4CCC(=O)NC4=O)cc3)CC1)CC2 [Example 6, 4-(5-(2-(3-(4-(4-(2,4-dioxotetrahydropyrimidin-1(2H)-yl)phenyl)piperazin-1-yl)-3-oxopropyl)-8-methyl-1,2,3,4-tetrahydroisoquinolin-6-yl)-1H-pyrrolo[2,3-b]pyridin-3-yl)-N,N-dimethylbenzamide] | 0.088 | – | – | – | 0.031 | 0.052 | 0.011 | 96 | 0.104 | 0.016 | 96 |
| Cc1cc(-c2cnc3[nH]cc(-c4ccc(C(=O)N(C)C[C@H](C)O)cc4)c3n2)cc2c1CN(CCC(=O)N1CCN(c3ccc(N4CCC(=O)NC4=O)cc3)CC1)CC2 [Example 7, (S)-4-(2-(2-(3-(4-(4-(2,4-dioxotetrahydropyrimidin-1(2H)-yl)phenyl)piperazin-1-yl)-3-oxopropyl)-8-methyl-1,2,3,4-tetrahydroisoquinolin-6-yl)-5H-pyrrolo[2,3-b]pyrazin-7-yl)—N-(2-hydroxypropyl)—N-methylbenzamide] | 0.307 | – | – | – | 0.02 | 0.118 | 0.025 | 95 | 0.388 | 0.045 | 95 |
| Cc1cc(-c2c[nH]c3ncc(-c4cc(C)c5c(c4)CCN(CCNC(=O)CC4CCN(c6ccc(C7CCC(=O)NC7=O)cc6)CC4)C5)nc23)ccc1C(=O)N(C)C (stereo not drawn) [Example 8, 4-(2-(2-(2-(2-(1-(4-(2,6-dioxopiperidin-3-yl)phenyl)piperidin-4-yl)acetamido)ethyl)-8-methyl-1,2,3,4-tetrahydroisoquinolin-6-yl)-5H-pyrrolo[2,3-b]pyrazin-7-yl)-N,N,2-trimethylbenzamide] | 0.496 | – | – | – | 0.297 | – | – | – | – | – | – |
| Cc1cc(-c2cnc3[nH]cc(-c4ccc(C(=O)N(C)C[C@H](C)O)cc4)c3c2)cc2c1CN(CCC(=O)N1CCN(c3ccc(N4CCC(=O)NC4=O)cc3)CC1)CC2 [Example 9, (S)-4-(5-(2-(3-(4-(4-(2,4-dioxotetrahydropyrimidin-1(2H)-yl)phenyl)piperazin-1-yl)-3-oxopropyl)-8-methyl-1,2,3,4-tetrahydroisoquinolin-6-yl)-1H-pyrrolo[2,3-b]pyridin-3-yl)-N-(2-hydroxypropyl)-N-methylbenzamide] | 0.181 | – | – | – | 0.016 | 0.077 | 0.019 | 93 | 0.495 | 0.071 | 95 |
